Measurements published in patent US11530229B2, “Cyano cyclobutyl compounds for CBL-B inhibition and uses thereof” (Nurix Therapeutics, Inc., priority 2019, dated 2022).
Like-named read-outs stand apart in the source and are kept apart here.

Tests used:
[1] = system: primary human total T-cells; assay: T-cell activation, IL-2 secretion, Biological Example 2; assay type: cell-based; conditions: 48 hours, fold change over baseline; for fold induction at 0.3 µM: 0.3 μM inhibitor; for fold induction at 1 µM: 1 μM inhibitor; for fold induction at 3 µM: 3 μM inhibitor
[2] = system: primary human total T-cells; assay: T-cell activation, CD25 surface staining, Biological Example 2; assay type: cell-based; conditions: 48 hours, fold change over baseline; for fold induction at 0.3 µM: 0.3 μM inhibitor; for fold induction at 1 µM: 1 μM inhibitor; for fold induction at 3 µM: 3 μM inhibitor
[3] = target: Cbl-b (Homo sapiens (Human), UniProt Q13191); assay: Cbl-b displacement assay (Cbl-b inhibition assay), Biological Example 1; assay type: binding
Procedure: Candidate compounds were evaluated for their ability to bind and inhibit Cbl-b, an E3 ubiquitin-protein ligase, as evidenced by their ability to displace a fluorophore-labeled probe (Example 59) bound to Cbl-b.
The ability of candidate compounds to displace a known inhibitor and thereby inhibit Cbl-b activity was measured by monitoring the interaction of Cbl-b with a fluorophore-labeled probe in the presence of the candidate compound. A truncated variant of Cbl-b (UniProt number Q13191; SEQ ID NO:1) containing an Avitag at its N-terminus was co-expressed with BirA biotin ligase and purified using a standard protocol (see Dou et al., Nature Structural and Molecular Biology, 8: 982-987, 2013; Avidity LLC).
Cbl-b Amino Acid Residues 36-427:
Fluorescently-labeled inhibitor probe was synthesized and tagged with BODIPY FL (Example 59). Cbl-b displacement assays were performed in a 384-well plate at room temperature in a 10 μL reaction volume by pre-incubating 0.5 nM Cbl-b or 0.125 nM Cbl-b (final concentration, indicated as “High” and “Low”, respectively) in an assay buffer containing 20 mM HEPES pH 7.5, 150 mM NaCl, 0.01% Triton X-100, 0.01% BSA and 0.5 mM TCEP in the presence of a candidate compound in 1% DMSO (final concentration) for 1 hour. After incubation in the presence of the candidate compound, the plate was incubated for an additional 1 hour in the presence of an approximate EC40 binding saturation consisting of 150 nM fluorescently-labeled inhibitor probe and 2 nM Streptavidin-Terbium (Cisbio) (final concentrations). Following the 1 hour incubation, the plates were read for TR-FRET signal at […] using an Envision plate reader (Perkin Elmer).

[4] = anti-CD3 and anti-CD28 co-stimulation
[5] = anti-CD3 and anti-CD28 co-stimulation, read-out: IL-2 secretion CD3/CD28 1 μM
[6] = anti-CD3 stimulation alone, read-out: IL-2 secretion CD3 1 μM
[7] = anti-CD3 and anti-CD28 co-stimulation, read-out: CD25 staining CD3/CD28 1 μM
[8] = anti-CD3 stimulation alone, read-out: CD25 staining CD3 1 μM
[9] = 0.125 nM Cbl-b final concentration (Low), read-out: Cbl-b activity IC50 (Low)
[10] = read-out: IC50 values in the Cbl-b inhibition assay of Biological Example 1

Cbl-b, sequence (Q13191 36-427): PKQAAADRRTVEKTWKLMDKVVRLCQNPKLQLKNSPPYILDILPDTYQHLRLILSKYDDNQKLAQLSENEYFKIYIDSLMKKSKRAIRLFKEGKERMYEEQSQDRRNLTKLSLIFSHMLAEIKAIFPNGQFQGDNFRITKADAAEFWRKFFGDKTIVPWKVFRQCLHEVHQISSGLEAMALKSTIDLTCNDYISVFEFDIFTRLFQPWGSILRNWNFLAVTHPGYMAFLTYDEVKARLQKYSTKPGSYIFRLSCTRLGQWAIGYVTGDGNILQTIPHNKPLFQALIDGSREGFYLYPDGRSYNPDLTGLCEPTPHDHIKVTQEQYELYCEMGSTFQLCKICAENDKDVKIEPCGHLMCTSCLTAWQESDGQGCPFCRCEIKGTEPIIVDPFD

Row | SMILES | fold induction at 0.3 µM [1, 4] | fold induction at 1 µM [1, 5] | fold induction at 1 µM [1, 6] | fold induction at 3 µM ([1]; anti-CD3 stimulation alone) | fold induction at 0.3 µM [2, 4] | fold induction at 1 µM [2, 7] | fold induction at 1 µM [2, 8] | fold induction at 3 µM ([2]; anti-CD3 stimulation alone) | IC50 [3, 9] | IC50 [3, 10]
1 | Cn1cnnc1C[C@]1(c2cccc(N3Cc4c(cc(CN5CCCC(F)(F)CC5)cc4C(F)(F)F)C3=O)c2)C[C@H](C#N)C1 [Compound 17, (1r,3r)-3-(3-(6-((4,4-difluoroazepan-1-yl)methyl)-1-oxo-4-(trifluoromethyl)isoindolin-2-yl)phenyl)-3-((4-methyl-4H-1,2,4-triazol-3-yl)methyl)cyclobutane-1-carbonitrile] | 15 to 20 | > 20 | 0.4 to 0.85 | 0.4 to 0.85 | 1.24 to 1.39 | 1.24 to 1.39 | 1 to 1.15 | ≤ 1 | 1 to 2 nM | 1 to 2 nM
2 | Cn1cnnc1C[C@]1(c2cccc(N3Cc4c(cc(CN5CCC6CCC(C5)O6)cc4C(F)(F)F)C3=O)c2)C[C@H](C#N)C1 (some centres unmarked) [Compound 37, (1r,3r)-3-(3-(6-((9-oxa-3-azabicyclo[4.2.1]nonan-3-yl)methyl)-1-oxo-4-(trifluoromethyl)isoindolin-2-yl)phenyl)-3-((4-methyl-4H-1,2,4-triazol-3-yl)methyl)cyclobutane-1-carbonitrile] | ≤ 15 | 15 to 20 | < 0.4 | 0.4 to 0.85 | 1.24 to 1.39 | 1.24 to 1.39 | 1 to 1.15 | ≤ 1 | 2 to 5 nM | 
3 | CN(Cc1cc2c(c(C(F)(F)F)c1)CN(c1cccc([C@]3(Cc4nncn4C)C[C@@H](C#N)C3)c1)C2=O)C1CCC(F)(F)C1 (some centres unmarked) [Compound 32, (1r,3r)-3-(3-(6-(((3,3-difluorocyclopentyl)(methyl)amino)methyl)-1-oxo-4-(trifluoromethyl)isoindolin-2-yl)phenyl)-3-((4-methyl-4H-1,2,4-triazol-3-yl)methyl)cyclobutane-1-carbonitrile] | > 20 | > 20 | > 0.85 | > 0.85 | > 1.39 | > 1.39 | > 1.15 | > 1.15 | 2 to 5 nM | 
4 | CCC1COCCN(Cc2cc3c(c(C(F)(F)F)c2)CN(c2cccc([C@]4(Cc5nncn5C)C[C@@H](C#N)C4)c2)C3=O)C1 (some centres unmarked) [Compound 43, (1r,3r)-3-(3-(6-((6-ethyl-1,4-oxazepan-4-yl)methyl)-1-oxo-4-(trifluoromethyl)isoindolin-2-yl)phenyl)-3-((4-methyl-4H-1,2,4-triazol-3-yl)methyl)cyclobutane-1-carbonitrile] | ≤ 15 | > 20 | 0.4 to 0.85 | 0.4 to 0.85 | ≤ 1.24 | ≤ 1.24 | 1 to 1.15 | 1 to 1.15 | 2 to 5 nM | 
5 | Cn1cnnc1C[C@]1(c2cccc(N3Cc4c(cc(CNC5CC6C(C5)C6(F)F)cc4C(F)(F)F)C3=O)c2)C[C@H](C#N)C1 (some centres unmarked) [Compound 12, (1r,3r)-3-(3-(6-(((6,6-difluorobicyclo[3.1.0]hexan-3-yl)amino)methyl)-1-oxo-4-(trifluoromethyl)isoindolin-2-yl)phenyl)-3-((4-methyl-4H-1,2,4-triazol-3-yl)methyl)cyclobutane-1-carbonitrile] | 15 to 20 | 15 to 20 | > 0.85 | 0.4 to 0.85 | 1.24 to 1.39 | 1.24 to 1.39 | 1 to 1.15 | 1 to 1.15 | < 1 nM | < 1 nM
6 | C[C@H]1CCCN(Cc2cc3c(c(C4CC4)n2)CN(c2cccc([C@]4(Cc5nncn5C)C[C@@H](C#N)C4)c2)C3=O)C1 [Compound 40, (1r,3r)-3-(3-(4-cyclopropyl-6-(((S)-3-methylpiperidin-1-yl)methyl)-1-oxo-1,3-dihydro-2H-pyrrolo[3,4-c]pyridin-2-yl)phenyl)-3-((4-methyl-4H-1,2,4-triazol-3-yl)methyl)cyclobutane-1-carbonitrile] | ≤ 15 | 15 to 20 | 0.4 to 0.85 | > 0.85 | 1.24 to 1.39 | 1.24 to 1.39 | 1 to 1.15 | ≤ 1 | 1 to 2 nM | 1 to 2 nM
7 | Cn1cnnc1C[C@]1(c2cccc(N3Cc4c(cc(CN5CCC[C@H](C(F)(F)F)C5)cc4C(F)(F)F)C3=O)c2)C[C@H](C#N)C1 [Compound 14, (1R,3r)-3-((4-methyl-4H-1,2,4-triazol-3-yl)methyl)-3-(3-(1-oxo-4-(trifluoromethyl)-6-(((S)-3-(trifluoromethyl)piperidin-1-yl)methyl)isoindolin-2-yl)phenyl)cyclobutane-1-carbonitrile] | 15 to 20 | 15 to 20 | 0.4 to 0.85 | 0.4 to 0.85 | ≤ 1.24 | ≤ 1.24 | ≤ 1 | ≤ 1 | 2 to 5 nM | 
8 | Cn1cnnc1C[C@]1(c2cccc(N3Cc4c(cc(CN5CCCOCC5)cc4C(F)(F)F)C3=O)c2)C[C@H](C#N)C1 [Compound 29, (1r,3r)-3-(3-(6-((1,4-oxazepan-4-yl)methyl)-1-oxo-4-(trifluoromethyl)isoindolin-2-yl)phenyl)-3-((4-methyl-4H-1,2,4-triazol-3-yl)methyl)cyclobutane-1-carbonitrile] | ≤ 15 | ≤ 15 | < 0.4 | 0.4 to 0.85 | 1.24 to 1.39 | 1.24 to 1.39 | > 1.15 | 1 to 1.15 | 2 to 5 nM | 
9 | CC1CCCCN(Cc2cc3c(c(C(F)(F)F)c2)CN(c2cccc([C@]4(Cc5nncn5C)C[C@@H](C#N)C4)c2)C3=O)C1 (some centres unmarked) [Compound 25, (1r,3r)-3-((4-methyl-4H-1,2,4-triazol-3-yl)methyl)-3-(3-(6-((3-methylazepan-1-yl)methyl)-1-oxo-4-(trifluoromethyl)isoindolin-2-yl)phenyl)cyclobutane-1-carbonitrile] | > 20 | > 20 | > 0.85 | > 0.85 | 1.24 to 1.39 | 1.24 to 1.39 | 1 to 1.15 | ≤ 1 | < 1 nM | < 1 nM
10 | Cn1cnnc1C[C@]1(c2cccc(N3Cc4c(cc(CN5CC6CCC(F)(F)C6C5)cc4C(F)(F)F)C3=O)c2)C[C@H](C#N)C1 (some centres unmarked) [Compound 47, (1r,3r)-3-(3-(6-((4,4-difluorohexahydrocyclopenta[c]pyrrol-2(1H)-yl)methyl)-1-oxo-4-(trifluoromethyl)isoindolin-2-yl)phenyl)-3-((4-methyl-4H-1,2,4-triazol-3-yl)methyl)cyclobutane-1-carbonitrile] | > 20 | > 20 | > 0.85 | > 0.85 | > 1.39 | > 1.39 | > 1.15 | > 1.15 | 2 to 5 nM | 2 to 5 nM
11 | C[C@@H]1CN(Cc2cc3c(c(C(F)(F)F)c2)CN(c2cccc([C@]4(Cc5nncn5C)C[C@@H](C#N)C4)c2)C3=O)C[C@H](C)O1 [Compound 15, (1R,3r)-3-(3-(6-(((2R,6S)-2,6-dimethylmorpholino)methyl)-1-oxo-4-(trifluoromethyl)isoindolin-2-yl)phenyl)-3-((4-methyl-4H-1,2,4-triazol-3-yl)methyl)cyclobutane-1-carbonitrile] | ≤ 15 | 15 to 20 | 0.4 to 0.85 | > 0.85 | 1.24 to 1.39 | 1.24 to 1.39 | 1 to 1.15 | 1 to 1.15 | 2 to 5 nM | 
